As a reminder, the IC50 is the point on the concentration scale where inhibition reaches its midpoint.

Data on five compounds can be found in patent publication US5648365A, “Diarylalkyl piperidines useful as multi-drug resistant tumor agents” (Merrell Pharmaceuticals Inc., priority 1996, dated 1997).

In experiment [1] the test system is MDR tumor cells. The experiment can be described thus: MDR activity: synergy with vinblastine, colorimetric MTT assay. The following applies: for EC50: concentration required to lower the IC50 of vinblastine by 50% when both added together, 72 hr, MTT, read-out: MDR Activity ED50; for Activity Index: ratio of toxicity (IC50) and MDR activity (ED50), 4320 min. It is filed as cell-based. How it is done:
(§1) A colorimetric assay is employed to determine the synergy between test compounds of the invention and vinblastine or adriamycin against the growth of MDR tumor cells. The assay is based on the ability of live tumor cells to reduce a tetrazoline compound, MTT (3-(4,5-dimethyl)[…])-2,5-diphenyl tetrazolium bromide, to a blue formazan product. Both the test compound and cytotoxic drug (vinblastine or adriamycin) were added to the cells growing in wells of a 96-well plate at different combinations of concentration. The cells were allowed to grow for 72 hr and, at the end of incubation, stained with MTT for 3 hr. The blue formazan product which developed, was dissolved with DMSO and the color intensity was recorded in a spectrophotometer. Based on the data, an isobologram analysis was performed. MDR activity (ED50 : μM) represents the concentration of the compound required to lower the IC50 value of vinblastine by 50% when both the compounds were added to the medium together. Cellular toxicity (IC50 : μM) represents concentration of the compound that inhibit cell growth by 50%. Activity index is the ratio of toxicity and MDR activity.
In general terms: Tetrazolium assays rely on reduction of a dye to a coloured formazan, in cell work by metabolically active cells.

The test system of experiment [2] is MDR tumor cells. The experiment can be described thus: Cellular toxicity: inhibition of cell growth, colorimetric MTT assay. The experiment is classed as cell-based. The following applies: concentration that inhibits cell growth by 50%, 72 hr. How it is done:
as §1

The structures appear in SMILES notation.

As for `COc1cc(CC(=O)N2CCCCC2CC(c2ccccc2)c2ccccc2)cc(OC)c1OC` (stereo not drawn) [Example 1, 1-[2-(2,2-Diphenyl-Ethyl)-Piperidin-1-yl]-2-(3,4,5-Trimethoxy-Phenyl)-Ethanone], in the experiment on MDR tumor cells [1], the EC50 is 0.31 µM and the “Activity Index” value is 109.0. In addition, in the experiment on MDR tumor cells [2], the half-inhibitory concentration (IC50) came out at 33.8 µM.

On to `COc1ccccc1CC(=O)N1CCCCC1CC(c1ccccc1)c1ccccc1` (stereo not drawn) [Example 2, 1-[2-(2,2-Diphenyl-Ethyl)-Piperidin-1-yl]-2(2-Methoxy-Phenyl)-Ethanone], for which, in the experiment on MDR tumor cells [1], the EC50 was determined as 1.16 µM and the “Activity Index” value was determined as 32.0. In addition, the IC50 in the experiment with MDR tumor cells [2] worked out at 37.5 µM.

Turning to `COc1ccc(CCC(=O)N2CCCCC2CC(c2ccccc2)c2ccccc2)cc1OC` (stereo not drawn) [Example 6, 3-(3,4-Dimethoxy-Phenyl)-1-[2-(2,2-Diphenylethyl)-Piperidin-1-yl]-Propan-1-one], in the experiment with MDR tumor cells [1], the EC50 is 0.46 µM and the “Activity Index” value is 47.0. Moreover, in the experiment with MDR tumor cells [2], the IC50 was 21.6 µM.

Take `O=C(Cc1ccc2c(c1)OCO2)N1CCCCC1CC(c1ccccc1)c1ccccc1` (stereo not drawn) [Example 3, 2-Benzo[1,3]Dioxol-5-yl-1-[2-(2,2-Diphenylethyl)-Piperidin-1-yl]-Ethanone]: in the experiment on MDR tumor cells [1], the EC50 stood at 1.2 µM and the “Activity Index” value was determined as 32.5. Also, in the experiment on MDR tumor cells [2], the 50% inhibitory concentration (IC50) was found to be 39 µM.

In the case of `COc1cc(CC(=O)N2CCCCC2C(c2ccccc2)c2ccccc2)cc(OC)c1OC` (stereo not drawn) [Example 9], in the experiment on MDR tumor cells [1], the EC50 turned out to be 0.7 µM and the “Activity Index” value is reported as 43.5. Besides, the IC50 in the experiment with MDR tumor cells [2] was 30.3 µM.
